Experimental data taken from patent US5208156A, “Esterase purified from serratia marcescens SR41 (FERM BP-No. 487)” (priority 1990, dated 1993).

Molecular target: T1, Serratia marcescens Sr41 (FERM BP-No. 487) esterase, purified esterase of Example 2 (Serratia marcescens, UniProt Q59932)
T1 construct: 62 kDa by SDS-PAGE; N-terminus XIFSYKDLDENA
T1 sequence (Q59932 2-613): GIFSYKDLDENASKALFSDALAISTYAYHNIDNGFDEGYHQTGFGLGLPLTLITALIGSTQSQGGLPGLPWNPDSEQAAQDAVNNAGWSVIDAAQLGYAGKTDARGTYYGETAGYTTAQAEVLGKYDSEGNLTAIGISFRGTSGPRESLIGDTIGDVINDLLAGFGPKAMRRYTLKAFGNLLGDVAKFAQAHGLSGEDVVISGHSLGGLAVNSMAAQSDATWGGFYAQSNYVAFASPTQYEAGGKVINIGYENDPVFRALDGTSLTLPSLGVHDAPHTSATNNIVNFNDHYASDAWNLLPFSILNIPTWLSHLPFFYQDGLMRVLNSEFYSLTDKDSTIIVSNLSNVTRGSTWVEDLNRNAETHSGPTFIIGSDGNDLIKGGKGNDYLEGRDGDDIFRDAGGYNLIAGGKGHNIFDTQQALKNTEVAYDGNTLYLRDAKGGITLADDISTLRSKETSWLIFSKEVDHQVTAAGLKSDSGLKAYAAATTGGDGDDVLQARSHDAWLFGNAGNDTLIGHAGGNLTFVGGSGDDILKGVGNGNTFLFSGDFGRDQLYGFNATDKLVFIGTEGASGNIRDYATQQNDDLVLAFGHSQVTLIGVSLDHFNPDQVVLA
Experiment: biochemical
Conditions: for Relative activity: 1 mM inhibitor added to enzyme solution, activity with no addition = 100, olive oil substrate, pH 8.0, 37° C.
Procedure: A mixture of 225 ml of 2% polyvinyl alcohol (Poval 117, manufactured by Kurare Co., Ltd.) and 75 ml of olive oil was emulsified by stirring at 14,500 rpm at 5°-10° C. for 10 minutes. 5.0 ml of the olive oil-emulsion thus-obtained and 4.0 ml of 0.25M Tris-HCl buffer (pH 8.0, containing 2.5 mM calcium chloride) were preincubated at 37° C. for 10 minutes. One ml of an enzyme solution was added thereto to initiate enzymatic reaction. After the mixture was incubated at 37° C. for 20 minutes, 20 ml of a mixture of acetone-ethanol (1:1) were added to the reaction mixture to stop the enzymatic reaction. The mixture was titrated with 0.05N sodium hydroxide solution by using phenolphthalein as the indicator. A blank solution was prepared in the same manner as above except that acetone-ethanol (1:1) is added to the substrate solution before addition of the enzyme solution. Said blank solution was titrated in the same manner as above. The amount of enzyme which liberated one μmole of fatty acid per minute was defined as one unit (U).
The effect of metal ions or known enzyme-inhibitors on the purified esterase obtained in Example 2 was investigated as follows: […]

| SMILES | Inhibition of esterase activity | activity at 1000 µM (20 min, pH 8, read-out: Relative activity) | Relative activity (20 min) |
| --- | --- | --- | --- |
| O=C(O)CN(CCN(CC(=O)O)CC(=O)O)CC(=O)O [Ethylenediaminetetraacetic acid] | completely inhibited | 0% |  |
| O=S(=O)(F)Cc1ccccc1 [Phenylmethylsulfonyl fluoride] |  |  | 100% |
| O=C(O)c1cc[c]([Hg][Cl])cc1 [p-Chloromercury benzoate] |  |  | 86% |
